Assays:
HCMEC/D3 cells [1] = test: Bulk RNA-sequencing of HCMEC/D3 cells treated with BIA; assay type: cell-based, human
Procedure: RNA-sequencing of HCMEC/D3 cells treated with BIA: For RNA-sequencing, HCMEC/D3 cells were plated at a density of 500,000 cells/well in a 6-well plate. Left to grow for 24 hours, and then treated with 1 μM of BIA or DMSO (control). After 24 hours, cells were collected and processed for RNA extraction using the column-based RNeasy kit (QIAGEN), following provider's instructions. RNA quality and quantity were quantified using a Nanodrop™ One (Invitrogen). At least 500 ng of RNA was submitted for bulk RNA-sequencing at GeneWiz (Azenta Life Sciences). QC was accessed, and library was prepared with Poly(A) selection. Sequencing was performed using Illumina HiSeq.
Differential gene expression on the RNA-seq raw data (FASTQ files) was analyzed by Azenta Life Sciences using DESeq2 aligning to human transcriptome. Data QC was verified. Log2 fold change (Log 2FC) was calculated by Log2 (BIA group mean normalized counts/Control group mean normalized counts). The Wald test p-value and Benjamini-Hochberg adjusted p-value were calculated. A heatmap and volcano plot of top adjusted p-value differentially expressed genes (DEGs) in ensemble ID annotation bi-clustering to treatment conditions were generated. Control and BIA groups consisted of three-independent samples.

HCMEC/D3 cells [2] = test: Platinum levels in brain endothelial cells treated with BIA and cisplatin; assay type: cell-based, human; settings: 2 μM BIA and cisplatin simultaneously

Compound: CC(=O)ON=C1C(=C2C(=O)Nc3cc(Br)ccc32)Nc2ccccc21 [BIA, 6-bromoindirubin acetoxime]
- ERG expression (HCMEC/D3 cells [1]): downregulation of ERG
- expression of WNT4, WNT10A and WNT11 ligands (HCMEC/D3 cells [1]): increase of expression
- expression of WNT7B and WNT ligand receptors FZD4 and FZD7 (HCMEC/D3 cells [1]): decrease
- CDH5 gene expression change upon BIA treatment (HCMEC/D3 cells [1]; BIA 1 μM, 24 hrs): −3.06 fold, log 2
- PCDH12 expression (HCMEC/D3 cells [1]; BIA 1 μM, 24 hrs): increased its expression
- expression of PHGDH, AXIN2, TCF7, VLDLR and VEGFA (HCMEC/D3 cells [1]; BIA 1 μM, 24 hrs): promoted expression
- expression of angiogenesis-related genes MMRN2, CD93, ACVRL1, KDR, SMAD6 and S1PR3 (HCMEC/D3 cells [1]; BIA 1 μM, 24 hrs): downregulated
- significantly downregulated differentially expressed genes (HCMEC/D3 cells [1]; BIA 1 μM, 24 hrs): 652 genes
- significantly upregulated differentially expressed genes (HCMEC/D3 cells [1]; BIA 1 μM, 24 hrs): 862 genes
- BTB-genes modulated by BIA (HCMEC/D3 cells [1]; of the 12 BTB-genes of the in-silico screening): 8 of the 12
- cellular drug (platinum) accumulation due to BIA addition (HCMEC/D3 cells [2]): did not observe any advantage in drug accumulation

From US20240358678A1, “METHODS AND COMPOSITIONS FOR ENHANCING CHEMOTHERAPEUTIC DRUG UPTAKE INTO BRAIN TUMORS” (Brown University, priority 2023, published 2024)
